# Data from ChEMBL document CHEMBL6087454, “Identification of Novel Organo-Se BTSA-Based Derivatives as Potent, Reversible, and Selective PPARγ Covalent Modulators for Antidiabetic Drug Discovery” (J Med Chem, 2025).
# The source made the active and inactive calls. The rule behind the calls is not given here.
# Experiments:
# [1] = molecular target: T1, Peroxisome proliferator-activated receptor gamma (Homo sapiens) (UniProt P37231); assay: Partial agonist activity at recombinant GST-tagged human PPAR-gamma ligand binding domain (E235 to Y505 residues) extracted from Escherichia coli BL21 (DE3) cells by TR-FRET assay; settings: filed as partial agonist
# T1 sequence (whole entry): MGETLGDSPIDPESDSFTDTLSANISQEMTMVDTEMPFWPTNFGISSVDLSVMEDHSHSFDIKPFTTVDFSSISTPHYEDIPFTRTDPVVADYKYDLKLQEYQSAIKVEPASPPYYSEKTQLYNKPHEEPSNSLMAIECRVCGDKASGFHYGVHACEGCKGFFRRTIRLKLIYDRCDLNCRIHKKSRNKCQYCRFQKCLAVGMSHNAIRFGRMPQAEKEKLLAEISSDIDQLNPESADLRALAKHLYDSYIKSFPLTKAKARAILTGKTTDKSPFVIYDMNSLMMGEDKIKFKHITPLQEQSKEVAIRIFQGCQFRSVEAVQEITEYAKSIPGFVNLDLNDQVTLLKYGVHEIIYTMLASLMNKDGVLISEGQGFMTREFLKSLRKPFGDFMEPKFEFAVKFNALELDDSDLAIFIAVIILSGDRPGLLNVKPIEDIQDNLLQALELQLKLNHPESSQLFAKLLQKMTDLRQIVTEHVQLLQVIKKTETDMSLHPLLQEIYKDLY
# [2] = molecular target: T2, Peroxisome proliferator-activated receptor alpha (Homo sapiens) (UniProt Q07869); assay: Binding affinity to PPAR-alpha (unknown origin) at 0.5 uM in presence of fluormone pan-PPAR green tracer by TR-FRET assay
# T2 sequence (whole entry): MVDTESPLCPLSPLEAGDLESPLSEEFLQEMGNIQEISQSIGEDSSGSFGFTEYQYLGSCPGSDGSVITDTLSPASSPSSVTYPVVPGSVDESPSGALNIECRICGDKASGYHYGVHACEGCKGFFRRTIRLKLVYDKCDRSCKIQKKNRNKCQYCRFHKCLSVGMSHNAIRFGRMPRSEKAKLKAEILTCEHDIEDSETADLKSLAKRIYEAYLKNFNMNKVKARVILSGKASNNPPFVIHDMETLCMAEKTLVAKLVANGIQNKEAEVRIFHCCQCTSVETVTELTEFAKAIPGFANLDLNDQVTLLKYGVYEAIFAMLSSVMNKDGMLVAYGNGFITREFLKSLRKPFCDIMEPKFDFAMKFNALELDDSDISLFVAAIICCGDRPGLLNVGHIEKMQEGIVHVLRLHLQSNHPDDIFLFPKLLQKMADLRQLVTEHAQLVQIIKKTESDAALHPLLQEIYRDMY
# [3] = molecular target: T1, Peroxisome proliferator-activated receptor gamma (Homo sapiens); assay: Covalent binding affinity to recombinant PPAR-gamma ligand binding domain (unknown origin) incubated for 30 mins by high-performance liquid chromatography Fourier transform mass spectrometric analysis; settings: filed as partial agonist
# [4] = molecular target: T1, Peroxisome proliferator-activated receptor gamma (Homo sapiens); assay: Reversible covalent binding affinity to full-length human PPAR-gamma transfected in […] cells at 5 to 60 nM preincubated for 6 hrs followed by rosiglitazone addition and measured after 24 hrs by Firefly and Renilla-Glo luciferase reporter assay; type: cell-based; settings: filed as partial agonist, dose 5-60 nM, time 30.0 hrs
# 3T3-L1 [5] = assay: Inhibition of adipogenesis in mouse 3T3-L1 cells assessed as downregulation of aP2 gene expression at 1 uM measured after 48 hrs by RT-qPCR analysis; type: functional, cell-based
# 3T3-L1 [6] = assay: Inhibition of adipogenesis in mouse 3T3-L1 cells assessed as downregulation of LPL gene expression at 1 uM measured after 48 hrs by RT-qPCR analysis; type: functional, cell-based
# 3T3-L1 [7] = assay: Insulin sensitizing activity in mouse 3T3-L1 cells assessed as upregulation of Glut4 gene expression at 1 uM measured after 48 hrs by RT-qPCR analysis; type: functional, cell-based
# [8] = Toxicity in male db/db mouse model assessed as effect on spleen morphology at 2.5 to 10 mg/kg/day, ip administered for 4 weeks; type: organism-based; settings: in vivo, 672 h, dose 2.5-10 mg/kg/day
# [9] = Toxicity in male db/db mouse model assessed as increase in brown adipose tissue weight at 2.5 to 10 mg/kg/day, ip administered for 4 weeks; type: organism-based; settings: in vivo, 672 h, dose 2.5-10 mg/kg/day
# [10] = Toxicity in male db/db mouse model assessed as increase in white adipocytes size at 2.5 to 10 mg/kg/day, ip administered for 4 weeks by H and E staining based analysis; type: organism-based; settings: in vivo, 672 h, dose 2.5-10 mg/kg/day
# [11] = Toxicity in male db/db mouse model assessed as increase in brown adipocytes size at 2.5 to 10 mg/kg/day, ip administered for 4 weeks by H and E staining based analysis; type: organism-based; settings: in vivo, 672 h, dose 2.5-10 mg/kg/day
# Mus musculus [12] = assay: In vivo inhibition of Erk/Cdk5-mediated PPAR-gamma phosphorylation at Ser273 residue in male db/db mouse model assessed as decrease in phosphorylated-ERK expression in liver at 2.5 to 10 mg/kg/day, ip administered for 4 weeks by Western blotting analysis; type: functional, organism-based; settings: dose 2.5-10 mg/kg/day
# Mus musculus [13] = assay: In vivo inhibition of Erk/Cdk5-mediated PPAR-gamma phosphorylation at Ser273 residue in male db/db mouse model assessed as decrease in phosphorylated-MEK expression in liver at 2.5 to 10 mg/kg/day, ip administered for 4 weeks by Western blotting analysis; type: functional, organism-based; settings: dose 2.5-10 mg/kg/day
# Mus musculus [14] = assay: Antidiabetic activity in male db/db mouse model assessed as increase in ANGPTL4 protein abundance in white adipose tissue at 2.5 to 10 mg/kg/day, ip administered for 4 weeks by Western blotting analysis; type: functional, organism-based; settings: dose 2.5-10 mg/kg/day
# Mus musculus [15] = assay: Antidiabetic activity in male db/db mouse model assessed as decrease in PDK4 protein abundance in white adipose tissue at 2.5 to 10 mg/kg/day, ip administered for 4 weeks by Western blotting analysis; type: functional, organism-based; settings: dose 2.5-10 mg/kg/day
# Mus musculus [16] = assay: Effect on cdk5 protein expression in male db/db mouse liver at 2.5 to 10 mg/kg/day, ip administered for 4 weeks by Western blotting analysis; type: functional, organism-based; settings: dose 2.5-10 mg/kg/day
# Mus musculus [17] = assay: Effect on pRb protein expression in male db/db mouse liver at 2.5 to 10 mg/kg/day, ip administered for 4 weeks by Western blotting analysis; type: functional, organism-based; settings: dose 2.5-10 mg/kg/day
# Mus musculus [18] = assay: Effect on pRb protein expression in male db/db mouse white adipose tissue at 2.5 to 10 mg/kg/day, ip administered for 4 weeks by Western blotting analysis; type: functional, organism-based; settings: dose 2.5-10 mg/kg/day
# Mus musculus [19] = assay: Antidiabetic activity in male db/db mouse model assessed as downregulation of PPARgamma gene expression in white adipose tissue at 2.5 to 10 mg/kg/day, ip administered for 4 weeks by RT-qPCR analysis; type: functional, organism-based; settings: dose 2.5-10 mg/kg/day
# Mus musculus [20] = assay: Antidiabetic activity in male db/db mouse model assessed as downregulation of C/EBPalpha gene expression in white adipose tissue at 2.5 to 10 mg/kg/day, ip administered for 4 weeks by RT-qPCR analysis; type: functional, organism-based; settings: dose 2.5-10 mg/kg/day
# Mus musculus [21] = assay: Antidiabetic activity in male db/db mouse model assessed as downregulation of PTP1B gene expression in liver at 2.5 to 10 mg/kg/day, ip administered for 4 weeks by RT-qPCR analysis; type: functional, organism-based; settings: dose 2.5-10 mg/kg/day
# Mus musculus [22] = assay: Antidiabetic activity in male db/db mouse model assessed as downregulation of PPARgamma gene expression in liver at 2.5 to 10 mg/kg/day, ip administered for 4 weeks by RT-qPCR analysis; type: functional, organism-based; settings: dose 2.5-10 mg/kg/day
compound,measurement,setting,value
Cc1ccc(S(=O)(=O)Oc2ccc(S3(=O)=N[Se]c4cc(OS(=O)(=O)c5ccc(C)cc5)ccc43)cc2)cc1 (configuration not stated),Activity,[1],Active
same,Activity,[2],inactive
same,Activity,[3],Active; Mass Change Of 633.50 Da For Ppargamma-Lbd Observed
same,Activity,[4],Active
same,inhibition,3T3-L1 [5],Active
same,inhibition,3T3-L1 [6],Active
same,Activity,3T3-L1 [7],Active
same,Activity,[8],Non-toxic
same,Activity,[9],Non-toxic
same,Activity,[10],Non-toxic
same,Activity,[11],Non-toxic
same,inhibition,Mus musculus [12],Active
same,inhibition,Mus musculus [13],Active
same,Activity,Mus musculus [14],Active
same,Activity,Mus musculus [15],Active
same,Activity,Mus musculus [16],inactive
same,Activity,Mus musculus [17],inactive
same,Activity,Mus musculus [18],inactive
same,Activity,Mus musculus [19],Active
same,Activity,Mus musculus [20],Active
same,Activity,Mus musculus [21],Active
same,Activity,Mus musculus [22],Active
